Results reported in patent US8822700B2, “Hepatitis C virus inhibitors” (Enanta Pharmaceuticals, Inc., priority 2009, dated 2014).

System: HCV 1b genotype replicon
Test: HCV replicon assay (qRT-PCR or luciferase), genotype 1b
Assay type: cell-based
Conditions: Hepatitis C virus; HCV 1b replicon cell lines (SGR 11-7 or Huh-luc/neo-ET); qRT-PCR or luciferase readout; two labels in one cell = mixture of the two compounds tested; read-out: Genotype-1b replicon EC50 Range
Source text: HCV replicon cell lines (kindly provided by R. Bartenschlager) isolated from colonies as described by Lohman et. al. (Lohman et al. (1999) Science 285: 110-113, expressly incorporated by reference in its entirety) and used for all experiments. The HCV replicon has the nucleic acid sequence set forth in EMBL Accession No.: AJ242651, the coding sequence of which is from nucleotides 1801 to 8406.
The coding sequence of the published HCV replicon was synthesized and subsequently assembled in a modified plasmid pBR322 (Promega, Madison, Wis.) using standard molecular biology techniques. One replicon cell line (“SGR 11-7”) stably expresses HCV replicon RNA which consists of (i) the HCV 5′UTR fused to the first 12 amino acids of the capsid protein, (ii) the neomycin phosphotransferase gene (neo), (iii) the IRES from encephalomyocarditis virus (EMCV), and (iv) HCV NS2 to NS5B genes and the HCV 3′UTR. Another replicon cell line (“Huh-luc/neo-ET”) described by Vrolijk et. al. (Vrolijk et. al. (2003) Journal of Virological Methods 110:201-209, expressly incorporated by reference in its entirety) stably expresses HCV replicon RNA which consists of (i) the HCV 5′UTR fused to the first 12 amino acids of the capsid protein, (ii) the firefly luciferase reporter gene, (iii) the ubiquitin gene, (iv) the neomycin phosphotransferase gene (neo), (v) the IRES from encephalomyocarditis virus (EMCV), and (vi) HCV NS3 to NS5B genes that harbor cell culture adaptive mutations (E1202G, T1280I, K1846T) and the HCV 3′UTR.
These cell lines were maintained at 37° C., 5% CO2, 100% relative humidity in DMEM (Cat#11965-084, Invitrogen), with 10% fetal calf serum (“FCS”, Invitrogen), 1% non-essential amino acids (Invitrogen), 1% of Glutamax (Invitrogen), 1% of 100× penicillin/streptomycin (Cat#15140-122, Invitrogen) and Geneticin (Cat#10131-027, Invitrogen) at 0.75 mg/ml or 0.5 mg/ml for 11-7 and Huh-luc/neo-ET cells, respectively.
EC50 values of single agent compounds and combinations were determined by HCV RNA detection using quantitative RT-PCR, according to the manufacturer's instructions, with a TAQMAN® One-Step RT-PCR Master Mix Reagents Kit (Cat# AB 4309169, Applied Biosystems) on an ABI Model 7500 thermocycler. The TaqMan primers used for detecting and quantifying HCV RNA were obtained from Integrated DNA Technologies. HCV RNA was normalized to GAPDH RNA levels in drug-treated cells, which was detected and quantified using the Human GAPDH Endogenous Control Mix (Applied Biosystems, AB 4310884E). Total cellular RNA was purified from 96-well plates using the RNAqueous 96 kit (Ambion, Cat# AM1812). Chemical agent cytotoxicity was evaluated using an MTS assay according to the manufacturer's directions (Promega).
Since clinical drug resistance often develops in viral infections following single agent therapies, there is a need to assess the additive, antagonistic, or synergistic properties of combination therapies. We use the HCV replicon system to assess the potential use of the compound of the present invention or in combination therapies with Interferon alpha, cyclosporine analogs and inhibitors targeting other HCV proteins. The acute effects of a single or combinations of drugs are studied in the “Huh-luc/neo-ET” replicon with each chemical agent titrated in an X or Y direction in a 6 point two-fold dilution curve centered around the EC50 of each drug. Briefly, replicon cells are seeded at 7,000 cells per well in 90 ul DMEM (without phenol red, Invitrogen Cat.#31053-036) per well with 10% FCS, 1% non-essential amino acids, 1% of Glutamax and 1% of 100× penicillin/streptomycin and incubated overnight at 37° C., 5% CO2, 100% relative humidity. […]

## COC(=O)N[C@H](C(=O)N1CCC(C(=O)Nc2ccc(-c3ccc(-c4c[nH]c([C@@H]5CCCN5C(=O)[C@@H](NC(=O)OC)C(C)C)n4)cc3)cc2)C1)C(C)C (stereo partly shown) [Example 355]
  EC50: 1 to 10 nM

## COC(=O)N[C@H](C(=O)N1CCC[C@@H]1CNC(=O)c1ccc(-c2ccc(-c3cnc([C@@H]4CCCN4C(=O)[C@@H](NC(=O)OC)C(C)C)[nH]3)cc2)cc1)C(C)C [Example 380]
  EC50: 1 to 10 nM

## COC(=O)N[C@H](C(=O)N1CC[C@H](NC(=O)c2ccc(-c3ccc(-c4c[nH]c([C@@H]5CCCN5C(=O)[C@@H](NC(=O)OC)C(C)C)n4)cc3)cc2)C1)C(C)C [Example 372]
  EC50: 1 to 10 nM

## COC(=O)N[C@H](C(=O)N1CCC[C@H]1CNC(=O)c1ccc(-c2ccc(-c3cnc([C@@H]4CCCN4C(=O)[C@@H](NC(=O)OC)C(C)C)[nH]3)cc2)cc1)C(C)C [Example 257]
  EC50: < 1 nM

## COC(=O)N[C@H](C(=O)NC[C@H]1CCCN1C(=O)c1ccc(-c2ccc(-c3cnc([C@@H]4CCCN4C(=O)[C@@H](NC(=O)OC)C(C)C)[nH]3)cc2)cc1)C(C)C [Example 381]
  EC50: > 10 nM

## COC(=O)N[C@H](C(=O)N1CC[C@H](C(=O)Nc2ccc3cc(-c4ccc5[nH]c([C@@H]6CCCN6C(=O)[C@@H](NC(=O)OC)C(C)C)nc5c4)ccc3c2)C1)C(C)C [Example 327]
  EC50: > 10 nM

## COC(=O)N[C@H](C(=O)O[C@@H]1CCC[C@H]1NC(=O)c1ccc(-c2ccc(-c3c[nH]c([C@@H]4CCCN4C(=O)[C@@H](NC(=O)OC)C(C)C)n3)cc2)cc1)C(C)C (racemic) [377a and 377b]
  EC50: < 1 nM

## COC(=O)N[C@H](C(=O)N[C@@H]1CCC[C@H]1NC(=O)c1ccc(-c2ccc(-c3ccc4[nH]c([C@@H]5CCCN5C(=O)[C@@H](NC(=O)OC)C(C)C)nc4c3)cc2)cc1)C(C)C (racemic) [371a and 371b]
  EC50: < 1 nM

## COC(=O)N[C@H](C(=O)N1CC[C@@H](C(=O)Nc2ccc(-c3ccc(-c4c[nH]c([C@@H]5CCCN5C(=O)[C@@H](NC(=O)OC)C(C)C)n4)cc3)cc2)C1)C(C)C [Example 374]
  EC50: < 1 nM

## COC(=O)N[C@H](C(=O)N1CCC[C@H]1CNC(=O)c1cccc(-c2ccc3cc(-c4c[nH]c([C@@H]5CCCN5C(=O)[C@@H](NC(=O)OC)C(C)C)n4)ccc3c2)c1)C(C)C [Example 361]
  EC50: 1 to 10 nM

## COC(=O)N[C@H](C(=O)N[C@@H]1CCC[C@H]1NC(=O)c1ccc(-c2ccc(-c3c[nH]c(C4CCCN4C(=O)[C@@H](NC(=O)OC)C(C)C)n3)cc2)cc1)C(C)C (mixture of isomers) [367a and 367b]
  EC50: < 1 nM

## COC(=O)N[C@H](C(=O)N1CCC(C(=O)Nc2ccc(-c3ccc4[nH]c([C@@H]5CCCN5C(=O)[C@@H](NC(=O)OC)C(C)C)nc4c3)cc2)C1)C(C)C (stereo partly shown) [Example 363]
  EC50: > 10 nM

## COC(=O)N[C@H](C(=O)N1CCC[C@@H](C(=O)Nc2ccc(-c3ccc(-c4cnc([C@@H]5CCCN5C(=O)[C@@H](NC(=O)OC)C(C)C)[nH]4)cc3)cc2)C1)C(C)C (racemic) [382a and 382b]
  EC50: < 1 nM

## COC(=O)N[C@H](C(=O)N1CC[C@@H](NC(=O)c2ccc(-c3ccc(-c4c[nH]c([C@@H]5CCCN5C(=O)[C@@H](NC(=O)OC)C(C)C)n4)cc3)cc2)C1)C(C)C [Example 352]
  EC50: 1 to 10 nM

## COC(=O)N[C@H](C(=O)N1CC[C@H](C(=O)Nc2ccc3cc(-c4ccc(-c5c[nH]c([C@@H]6CCCN6C(=O)[C@@H](NC(=O)OC)C(C)C)n5)cc4)ccc3c2)C1)C(C)C [Example 365]
  EC50: 1 to 10 nM

## COC(=O)N[C@H](C(=O)N1CC[C@H](C(=O)Nc2ccc(-c3ccc(-c4cnc([C@@H]5CCCN5C(=O)[C@@H](NC(=O)OC)C(C)C)[nH]4)cc3)cc2)C1)C(C)C [Example 83]
  EC50: 1 to 10 nM

## COC(=O)N[C@H](C(=O)N[C@H]1CCC[C@@H]1C(=O)Nc1ccc(-c2ccc(-c3c[nH]c([C@@H]4CCCN4C(=O)[C@@H](NC(=O)OC)C(C)C)n3)cc2)cc1)C(C)C (racemic) [349a and 349b]
  EC50: 1 to 10 nM

## COC(=O)N[C@H](C(=O)N1CC[C@H](C(=O)Nc2ccc(-c3ccc(-c4c[nH]c([C@@H]5CCCN5C(=O)[C@@H](NC(=O)OC)C(C)C)n4)cc3)cn2)C1)C(C)C [Example 379]
  EC50: < 1 nM

## COC(=O)N[C@H](C(=O)N[C@@H]1CCC[C@H]1NC(=O)c1ccc(-c2ccc(-c3c[nH]c([C@@H]4CCCN4C(=O)[C@@H](NC(=O)OC)C(C)C)n3)cc2)cc1)C(C)C [Example 369]
  EC50: > 10 nM
